The text below walks through data of ChEMBL document CHEMBL1201862, “PubChem BioAssay data set” (2004).

Structures are written as SMILES. Activity calls are given as the source filed them. Bounds are passed on as bounds.

One assay has as its target T1, Aspartyl aminopeptidase (Plasmodium falciparum 3D7, UniProt Q8I2J3).
T1 sequence (Q8I2J3 whole entry): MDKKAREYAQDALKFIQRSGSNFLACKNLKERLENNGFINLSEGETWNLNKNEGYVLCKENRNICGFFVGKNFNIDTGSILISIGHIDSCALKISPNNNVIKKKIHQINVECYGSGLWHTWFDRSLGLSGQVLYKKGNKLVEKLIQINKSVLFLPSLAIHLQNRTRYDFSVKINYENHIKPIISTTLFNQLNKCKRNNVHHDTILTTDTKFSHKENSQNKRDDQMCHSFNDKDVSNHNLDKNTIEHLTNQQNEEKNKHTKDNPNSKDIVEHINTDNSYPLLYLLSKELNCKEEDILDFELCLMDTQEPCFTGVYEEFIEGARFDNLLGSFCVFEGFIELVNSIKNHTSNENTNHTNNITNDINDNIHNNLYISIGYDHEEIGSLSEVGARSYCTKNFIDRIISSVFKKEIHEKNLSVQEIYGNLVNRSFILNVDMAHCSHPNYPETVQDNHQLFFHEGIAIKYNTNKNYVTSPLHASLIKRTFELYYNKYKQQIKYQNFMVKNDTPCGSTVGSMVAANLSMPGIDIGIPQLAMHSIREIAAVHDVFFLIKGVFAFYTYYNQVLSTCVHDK
The assay can be described thus: Counterscreen for inhibitors of M1 and M17 aminopeptidases: QFRET-based biochemical high throughput dose response assay for inhibitors of the Plasmodium falciparum M18 Aspartyl Aminopeptidase (PFM18AAP). [Related PubChem assays: 1619 (Screening assay (M17LAP inhibitors).), 1445 (Screening assay (M1AAP inhibitors).)]. On the technique in general: Counterscreens check selectivity or assay interference.

A further assay has as its target T2, Aminopeptidase N (Plasmodium falciparum FcB1/Columbia, UniProt O96935).
T2 sequence (O96935 whole entry): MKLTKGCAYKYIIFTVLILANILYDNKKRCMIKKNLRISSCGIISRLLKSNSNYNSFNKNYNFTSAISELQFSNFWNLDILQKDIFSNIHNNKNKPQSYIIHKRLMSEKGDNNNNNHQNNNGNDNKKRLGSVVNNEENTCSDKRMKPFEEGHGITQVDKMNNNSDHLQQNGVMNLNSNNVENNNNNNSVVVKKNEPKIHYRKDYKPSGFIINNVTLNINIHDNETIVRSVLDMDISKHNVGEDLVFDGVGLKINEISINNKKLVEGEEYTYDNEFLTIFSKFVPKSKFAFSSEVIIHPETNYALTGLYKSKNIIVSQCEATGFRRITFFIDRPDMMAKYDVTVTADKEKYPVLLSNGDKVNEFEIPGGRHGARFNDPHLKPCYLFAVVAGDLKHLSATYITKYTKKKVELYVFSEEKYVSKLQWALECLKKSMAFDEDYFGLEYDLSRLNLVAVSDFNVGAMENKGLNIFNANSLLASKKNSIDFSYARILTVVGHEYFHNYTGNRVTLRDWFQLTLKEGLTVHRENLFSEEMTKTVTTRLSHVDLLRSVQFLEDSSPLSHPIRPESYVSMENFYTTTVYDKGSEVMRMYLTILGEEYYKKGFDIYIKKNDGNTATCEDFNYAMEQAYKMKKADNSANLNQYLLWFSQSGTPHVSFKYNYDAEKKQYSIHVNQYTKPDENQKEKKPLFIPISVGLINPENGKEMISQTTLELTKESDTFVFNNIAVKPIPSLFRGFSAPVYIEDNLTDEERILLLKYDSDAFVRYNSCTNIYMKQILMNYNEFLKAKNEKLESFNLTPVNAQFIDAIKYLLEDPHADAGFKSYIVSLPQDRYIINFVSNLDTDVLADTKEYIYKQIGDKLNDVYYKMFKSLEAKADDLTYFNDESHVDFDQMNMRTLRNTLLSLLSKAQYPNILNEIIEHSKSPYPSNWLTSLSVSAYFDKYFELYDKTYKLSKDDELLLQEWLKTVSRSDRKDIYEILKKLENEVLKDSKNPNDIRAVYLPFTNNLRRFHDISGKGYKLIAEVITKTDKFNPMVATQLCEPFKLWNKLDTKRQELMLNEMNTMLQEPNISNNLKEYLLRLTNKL
The assay can be described thus: malaria alanyl aminopeptidase activity blockers – biochemical, fluorogenic H-Leu-NHMec substrate, 1536-well (AID 1445). Set-up: species or system Plasmodium falciparum 3D7, 3D7.

The target of a further assay is Procathepsin L (Homo sapiens, UniProt P07711). The assay can be described thus: CTSL1 protease inhibition – biochemical, QFRET, 1536-well, counter-screen for M1/M17 aminopeptidase inhibitor project, dose response (AID 2214).
Sequence of Procathepsin L (P07711 whole entry): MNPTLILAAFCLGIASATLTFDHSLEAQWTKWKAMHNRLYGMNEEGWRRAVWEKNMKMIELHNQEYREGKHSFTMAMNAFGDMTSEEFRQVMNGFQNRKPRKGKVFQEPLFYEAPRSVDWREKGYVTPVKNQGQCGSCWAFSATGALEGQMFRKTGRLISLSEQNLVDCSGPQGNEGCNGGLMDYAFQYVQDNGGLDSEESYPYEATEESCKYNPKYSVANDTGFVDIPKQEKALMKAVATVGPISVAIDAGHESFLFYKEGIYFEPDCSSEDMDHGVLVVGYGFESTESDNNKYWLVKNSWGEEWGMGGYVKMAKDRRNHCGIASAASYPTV
The next assay has as its target T3, Leucine aminopeptidase (Plasmodium falciparum 3D7, UniProt Q8IL11).
T3 sequence (Q8IL11 whole entry): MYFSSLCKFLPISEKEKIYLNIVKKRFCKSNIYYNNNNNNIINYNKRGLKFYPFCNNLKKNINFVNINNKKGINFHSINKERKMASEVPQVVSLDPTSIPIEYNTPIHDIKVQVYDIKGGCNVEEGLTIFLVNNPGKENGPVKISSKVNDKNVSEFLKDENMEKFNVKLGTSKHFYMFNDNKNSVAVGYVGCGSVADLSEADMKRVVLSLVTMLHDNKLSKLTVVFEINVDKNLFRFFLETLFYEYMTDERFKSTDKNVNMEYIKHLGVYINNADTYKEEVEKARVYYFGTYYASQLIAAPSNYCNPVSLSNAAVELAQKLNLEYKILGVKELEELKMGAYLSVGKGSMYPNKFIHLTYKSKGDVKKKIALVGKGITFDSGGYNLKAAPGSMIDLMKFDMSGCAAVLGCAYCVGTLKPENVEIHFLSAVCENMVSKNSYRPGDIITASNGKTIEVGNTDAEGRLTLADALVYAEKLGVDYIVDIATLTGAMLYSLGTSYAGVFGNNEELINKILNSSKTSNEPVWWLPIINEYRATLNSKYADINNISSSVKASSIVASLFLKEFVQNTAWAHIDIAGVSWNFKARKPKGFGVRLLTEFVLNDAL
The assay can be described thus: P. falciparum M17LAP inhibitors, primary screen, biochemical, fluorogenic H-Leu-NHMec substrate, 1536-well (AID 1619). It is filed as functional.

Assay [1] deals with T4, Short transient receptor potential channel 4 (Mus musculus, UniProt Q9QUQ5).
T4 sequence (Q9QUQ5 whole entry): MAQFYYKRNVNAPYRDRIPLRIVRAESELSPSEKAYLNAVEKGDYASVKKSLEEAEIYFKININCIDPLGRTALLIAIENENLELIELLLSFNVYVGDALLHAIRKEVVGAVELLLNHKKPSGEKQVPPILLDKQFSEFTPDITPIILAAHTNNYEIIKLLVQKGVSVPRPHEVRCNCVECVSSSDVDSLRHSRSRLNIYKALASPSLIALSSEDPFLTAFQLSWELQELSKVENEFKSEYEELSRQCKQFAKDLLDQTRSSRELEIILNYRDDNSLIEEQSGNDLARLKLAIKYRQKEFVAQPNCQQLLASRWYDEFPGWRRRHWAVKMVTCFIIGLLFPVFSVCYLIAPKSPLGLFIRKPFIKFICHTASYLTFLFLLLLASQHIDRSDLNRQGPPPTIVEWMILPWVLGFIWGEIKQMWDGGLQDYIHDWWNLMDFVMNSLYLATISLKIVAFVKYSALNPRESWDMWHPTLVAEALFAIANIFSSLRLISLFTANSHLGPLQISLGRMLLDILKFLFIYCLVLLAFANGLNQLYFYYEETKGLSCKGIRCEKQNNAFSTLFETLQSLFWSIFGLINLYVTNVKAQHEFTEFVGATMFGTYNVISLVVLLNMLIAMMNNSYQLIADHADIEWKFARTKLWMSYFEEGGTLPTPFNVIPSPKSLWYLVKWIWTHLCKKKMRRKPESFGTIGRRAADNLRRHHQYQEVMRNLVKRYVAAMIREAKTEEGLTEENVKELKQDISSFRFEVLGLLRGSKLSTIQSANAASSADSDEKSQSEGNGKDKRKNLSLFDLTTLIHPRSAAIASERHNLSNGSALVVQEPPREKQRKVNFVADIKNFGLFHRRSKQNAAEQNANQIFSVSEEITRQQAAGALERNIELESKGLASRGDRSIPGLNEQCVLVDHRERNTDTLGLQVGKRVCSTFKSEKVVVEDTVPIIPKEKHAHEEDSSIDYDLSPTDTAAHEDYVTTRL
The assay can be described thus: block of DAMGO-driven TRPC4 calcium entry – cell-based, HEK293 TRPC4/mu-opioid, Fluo-4 calcium, dose response (AID 434942).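 Note: potency of inhibitors blocking the TRPC4 calcium response.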 In kind it is functional.

Assay [2] is described as follows: blockers of HIV-1 envelope-mediated cell-cell fusion – cherry-pick, dose response (AID 652057). In kind it is functional, cell-based.
Assay [3] is described as follows: blockers of HIV-1 ZM109 envelope-driven cell-cell fusion – HeLa effector, CEM target cells, luciferase, cherry-pick, dose response (AID 652058).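 Note: luciferase signal from HIV-1 Env mediated cell-cell fusion of effector and target cells.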 It is filed as functional, cell-based.
The nature of assay [4]: off-target signal loss in HeLa-CEM21 co-culture – HeLa F-luc CTL cells, cherry-picked, counter-screen for HIV-1 Env fusion inhibitor project, dose response (AID 652040).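 Note: potency for signal decrease marking cytotoxic or nonspecific inhibition.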 It is filed as functional, cell-based.
A short description of assay [5]: HIV-1 AD8 envelope cell-cell fusion blockers – cherry-pick, dose response (AID 652062).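 Note: luciferase signal from cell-cell fusion driven by HIV-1 clade B AD8 Env; potency is for inhibitors of fusion seen as a drop in luminescence.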 It is filed as functional, cell-based.
In a further assay the target is T5, X-box-binding protein 1 (Homo sapiens, UniProt P17861).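 Note: confirmatory dose-response counter-screen serving a CHOP assay.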
T5 sequence (P17861 whole entry): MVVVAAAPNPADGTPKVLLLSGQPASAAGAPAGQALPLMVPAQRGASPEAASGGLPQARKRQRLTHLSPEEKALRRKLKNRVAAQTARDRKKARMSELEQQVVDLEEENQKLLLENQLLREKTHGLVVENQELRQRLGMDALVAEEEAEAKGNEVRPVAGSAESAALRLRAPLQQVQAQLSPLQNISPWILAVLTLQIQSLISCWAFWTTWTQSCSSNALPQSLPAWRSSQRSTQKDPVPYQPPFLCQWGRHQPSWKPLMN
In kind it is functional, Cricetulus griseus.

A further assay concerns Vero. The assay can be described thus: mammalian cell viability reduction – secondary assay, cytotoxicity control for West Nile virus antiviral project, dose response (AID 1650). It is filed as functional. As to conditions: Chlorocebus sabaeus.
Assay [6] in a line: intracellular Trypanosoma cruzi inhibitors in host cells – cell-based, plate reader, cherry-pick samples, set 3, dose response (AID 651818).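 Note: compounds incubated with infected cells for about four days.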 In kind it is functional.

For orientation: IC50 means the concentration needed to halve the response being measured. For the compound `O=C(Nn1c(Cc2cccs2)nc2ccccc2c1=O)c1cccs1`, the IC50 against Aspartyl aminopeptidase is > 73.5 µM (not active); at Aminopeptidase N, 11.9 µM (active); at Procathepsin L, > 59.6 µM (not active).

In the case of `Cc1ccc(-n2c(C)cc(C(=O)COC(=O)c3ccc[nH]c3=O)c2C)cc1`, the IC50 at Leucine aminopeptidase was 1.22 µM (active); on Aspartyl aminopeptidase it was > 73.5 µM (not active); on Procathepsin L, > 59.6 µM (not active).

Regarding `CCc1cc2ccccc2nc1SCC(=O)Nc1cc(OC)c(OC)cc1C(=O)O`, the IC50 at Leucine aminopeptidase was < 1 µM (active); at Aspartyl aminopeptidase, > 73.5 µM (not active); at Procathepsin L, > 59.6 µM (not active).

For orientation: EC50 means the concentration needed to bring the measured effect to its halfway point. What is called AC50 is the concentration giving half of the maximal activity seen. Regarding `O=C(Nc1ccccc1N1CCN(C(=O)c2ccccc2)CC1)c1ccc(Br)o1`, the EC50 in assay [1] was 0.596 µM (active). Besides, the AC50 in [2] is 10.2 µM (active); in assay [3], 12.1 µM (active); in assay [4], 15.2 µM (active); in assay [5], 11 µM (active).

Take `Oc1ccc(Br)cc1-c1nc2cnccn2c1NC1CCCCC1`: the “Absolute IC50 (XBP1)” value at X-box-binding protein 1 is 10 µM.

On to `Clc1ccc(COc2ccccc2CNCc2cccnc2)cc1`, for which the EC50 in assay [1] is 2.99 µM (active).

Usually CC50 stands for the concentration giving 50% cytotoxicity. Consider `CCC(=O)N1N=C(c2c(O)nc3ccc(Cl)cc3c2-c2ccccc2)CC1c1ccco1` (configuration not stated), for which, in the assay on Vero, the CC50 is 73.3 µM (active). The “Absolute IC50 (XBP1)” value at X-box-binding protein 1 worked out at 10 µM.

Regarding `CCCNCc1cc(Br)ccc1OCC(=O)NCCc1ccccc1`, the EC50 in assay [1] is 0.841 µM (active).

As for `CCC(C)NCCOCCOc1ccccc1-c1ccccc1` (configuration not stated), in [1], the EC50 was 1.19 µM (active).

`C[C@@H]1CN([C@H](C)CO)C(=O)c2cccc(NC(=O)C3CCCCC3)c2O[C@H]1CN(C)Cc1ccc(Cl)c(Cl)c1`: the AC50 in [6] is 3.93 µM (active).

For `C[C@H]1CN([C@@H](C)CO)C(=O)c2cc(NS(=O)(=O)c3ccc(F)cc3)ccc2O[C@@H]1CN(C)Cc1ccc(Oc2ccccc2)cc1`, the AC50 in assay [6] is 3.72 µM (active).
